Data set [1] in a line: Nanoparticle size, polydispersity index and surface potential by light scattering. It counts as physicochemical. As to the method:
In general, the nanoparticles thus obtained have a mean size ranging from 30 to 650 nm, in particular from 30 to 500 nm and in particular from 50 to 250 nm, or even from 100 to 200 nm, measured by light scattering using a Coulter® N4MD nanosizer from Coulter Electronics, Hialeah, USA.
4 mg of squalenoylpaclitaxel are dissolved in […] of ethanol (2.5 mg/ml) and added dropwise with continuous stirring (speed of 500 rpm) to 1 ml of an aqueous solution containing 5% dextrose. The squalenoylpaclitaxel self-assembles in the form of nanoparticles with a size of between 100 and 200 nm. The ethanol is then completely evaporated off under reduced pressure using a Rotavapor® to obtain a nanoparticulate suspension of squalenoylpaclitaxel at a final concentration of 4 mg/ml.
Variable amounts (stated in Table 1 below) of squalenoylpaclitaxel are dissolved in 0.25 ml of tetrahydrofuran (THF). The solutions obtained are added dropwise with continuous stirring (speed of 500 rpm) to 0.25 ml of water. The squalenoylpaclitaxel precipitates in the form of nanoparticles between 100 and 200 nm in size. The THF is then completely evaporated off under reduced pressure using a Rotavapor® to obtain nanoparticulate squalenoylpaclitaxel suspensions whose size varies as a function of the concentration (see the table below).
100 μl of squalenoyldeoxyspergualine dissolved in ethanol (4 mg/ml) are added dropwise to 2 ml of distilled water with vigorous stirring. After evaporating off the ethanol under reduced pressure using a Rotavapor®, a suspension of nanoparticles 162 nm in size (polydispersity index 0.12 characterized by a surface potential of 27.38±2.60 mV) is obtained.
The mean size of the nanoparticles and the polydispersity index of the nanoparticles are determined at a temperature of 20° C. by light scattering with a zetasizer machine (Malvern Instruments, UK). The measurements are taken after diluting the nanoparticle suspension in MilliQ® water.

For data set [2], the system named is Madison's 109 (M109) murine pulmonary tumor cell line. Description: In vitro anticancer activity, MTT test on M109 cells. To be noted: 72 hours, nanoparticles, read-out: 50% inhibitory concentration (IC50). Format: cell-based. As to the method: (§1) The in vitro anticancer activity of the conjugates of squalenoyl/paclitaxel type in the form of nanoparticles is performed on Madison's 109 (M109) murine pulmonary tumor cell line. The M109 cells are cultured in RPMI 1640, supplemented with 10% fetal calf serum, 50 U·ml^−1 of penicillin and 50 μg·ml^−1 of streptomycin and 2 mM of L-glutamine. This analysis is performed using the 3-[4,5-dimethylthiazol-2-yl]-3,5-diphenyltetrazolium bromide (MTT) test, which measures the mitochondrial dehydrogenase activity. The cells in exponential growth phase are inoculated into a 96-well plate and preincubated for 24 hours at 37° C. in a humidified atmosphere with 5% CO2 in the air. Various dilutions of paclitaxel nanoparticles are added to the cells in the culture medium. Each dilution is tested three times. After 72 hours at 37° C., 200 μL of MTT solution in the cell culture medium (0.5 mg/ml) are added to each well. After incubating for 2 hours 30 minutes at 37° C., the culture medium is removed and the formazan crystals obtained are dissolved in 200 μL of an extraction solution (dimethyl sulfoxide). The absorbing power of the transformed dyestuff, which is proportional to the number of viable cells, is measured at 570 nm using a microplate reader (Metertech Σ 960, Fisher Bioblock, Illkirch, France). The percentage of surviving cells is calculated by determining the ratio of the absorbing power between the treated cells and the untreated cells.

The subject of data set [3] is M109 subcutaneous tumoral model (murine pulmonary tumor). Description: In vivo anticancer activity, M109 subcutaneous tumoral model. The note with it: 160 mg·kg^−1 i.v. for 5 consecutive days, CD2F1 mice, FIG. 2. An excerpt: CD2F1 mice (4-5 weeks old) weighing about 15-18 g were used for this study. The mice are fed with standard mouse feed and water ad libitum. The M109 subcutaneous tumoral model (murine pulmonary tumor) is developed by injecting the M109 cells at exponential growth (1×10^6 cells) as a suspension, under the skin, into the lower portion of the abdomen of the mice. A palpable tumor (about 50-100 mm^3) is allowed to grow at the site of injection. The tumor-bearing mice are divided into 2 groups of 5-6, i.e. the untreated mice and the mice treated with squalenoyldiglycolyl-paclitaxel nanoparticles 160 mg·kg^−1 (injected intravenously for 5 consecutive days). The mice are controlled regularly to check the difference in the volume of the tumors, and thus to evaluate the anticancer efficacy.

Data set [4] deals with L1210 aggressive metastatic leukemia model. In words: In vivo anticancer activity, L1210 aggressive metastatic leukemia model. The note with it: 13 mg·kg^−1 i.v. on days 1, 7 and 14, DBA/2 mice. An excerpt: DBA/2 mice (4 to 5 weeks old) weighing about 15-18 g were used for this study. As for Example 17, the mice are fed with standard mouse feed and water ad libitum. The L1210 aggressive metastatic leukemia model (a murine leukemia) is developed by intravenously injecting the L1210 cells at exponential growth (0.1×10^6 cells) as a suspension, into the mice. The tumor-bearing mice are divided into 2 groups of 5-6, i.e. the untreated mice and the mice treated with squalenoyldoxorubicin nanoparticles (13 mg·kg^−1, injected intravenously on days 1, 7 and 14, after injection of the tumor cells). After treatment, the mice are controlled regularly to check the differences in weight and the survival rate, these parameters making it possible to evaluate the efficacy of the anticancer activity.

Data set [5] deals with L1210 WT murine leukemia cell line. Description: In vitro anticancer activity, MTT test on L1210 WT cells. To be noted: Mus musculus, 72 hours, nanoparticles, read-out: 50% inhibitory concentration (IC50). It counts as cell-based. As to the method: as §1, with “After incubating for 2 hours 30 minutes at 37° C., the culture medium is removed and the formazan crystals obtained are dissolved in 200 μL of an extraction solution (dimethyl sulfoxide).” left out
The in vitro anticancer activity of the squalenoyldoxorubicin nanoparticles is evaluated on an L1210 WT murine leukemia cell line. […]
On the technique in general: Tetrazolium dyes change colour on reduction, which living cells bring about.

A further data set has as its system KB 3.1 cells. In words: Tubulin immunofluorescence (spindle-poisoning activity) by confocal fluorescence microscopy. The note with it: nanoparticles 5 μM, 14-16 hours, FIG. 1B. It counts as cell-based, human. The procedure:
The characterization of this activity is performed by immunofluorescence according to the following protocol:
Day 1: KB 3.1 cells originating from a human cervical carcinoma, and HT-29 cells corresponding to a human colon cancer cell line, are deposited on 6-well plates at a density of 20 000 cells/well (final volume 2 ml RPMI plus FCS). The cells are incubated at a temperature of 37° C. and at 5% CO2.
Day 2: The cells are rinsed and the squalenoylpaclitaxel nanoparticles (concentration 5 μM) as prepared according to the protocol described in Example 3 are added thereto.
Day 3: After 14-16 hours, rinsing is performed twice with PBS and the extraction solution (Triton X-100 plus 0.5% PEM-PIPES 100 mM, EGTA 2 mM, MgCl2 2 mM, pH 6.8) is then added. After 4 minutes, rinsing is performed, followed by addition of 2 ml of a 3% solution of formaldehyde in PEM. 40 minutes later, rinsing is performed and 20% FCS in PBS is added over 30 minutes. Murine anti-α-tubulin FITC monoclonal antibody (diluted to 1:200) is then added and the mixture is incubated for 1 hour. It is finally rinsed with PBS and an analysis by confocal fluorescence microscopy (Leica TCS SP2) is performed.

For another data set, the system named is mice (C57BL6). Format: in vivo. The note with it: 4 mg/ml suspension i.v., 4×50 mg/kg (paclitaxel equivalent). As to the method: The nanoparticulate squalenoylpaclitaxel suspension as prepared in Example 3 (4 mg/ml) is directly injected intravenously into mice (C57BL6) at a dose of 4×50 mg/kg (paclitaxel equivalent); the injections take place on days 0, 5, 9 and 14. […] The direct intravenous injection of the Taxol solution (without dilution in 0.9% NaCl) leads to the immediate death of 100% of the treated mice. When the Taxol solution is prediluted in 0.9% NaCl, the maximum dose that can be injected is 20 mg/kg.

Where [6] appears, read: 20° C., zetasizer, diluted in MilliQ water, compositions of Example 15.
Setting [7] is: Example 9: 100 μl of 4 mg/ml ethanol solution added to 2 ml distilled water.

As for “Squalenoylsuccinyl-PEG340-paclitaxel [Example 12]”, in data set [1] (setting [6]), the Mean particle diameter is given as 643.9 nm and the Polydispersity index came to 0.081. For the same molecule, the IC50 in data set [2] came to 490 nM.

For the molecule “Squalenoyldiglycolyl-paclitaxel [Example 11]”, in data set [1] (setting [6]), the Mean particle diameter amounted to 150.0 nm and the Polydispersity index came out at 0.075. Further, the IC50 in data set [2] came out at 175 nM. Besides, the “Anticancer activity: progression of tumor volume” value in data set [3] was “show anticancer activity by controlling the progression of the M109 tumors”.

Turning to `COc1cccc2c1C(=O)c1c(O)c3c(c(O)c1C2=O)CC(O)(C(=O)COC(=O)CC/C(C)=C/CC/C(C)=C/CC/C=C(\C)CC/C=C(\C)CCC=C(C)C)CC3OC1CC(N)C(O)C(C)O1` (stereo not drawn) [Example 14, 14-squalenoyldoxorubicin], the “Anticancer activity (variations in weight of mice)” value in data set [4] (FIG. 3) is “demonstrate effective anticancer activity”. Further, the Survival rate entry in data set [4] (FIG. 4) is “improved survival rate”. Besides, the IC50 in data set [5] was determined as 291 nM. Further, in data set [1] (setting [6]), the Mean particle diameter was 138.2 nm and the Polydispersity index is 0.325.

As for monosqualenoylpaclitaxel, the Polydispersity index in data set [1] (0.36 mmol squalenoylpaclitaxel in 0.25 ml THF added to 0.25 ml water) is 0.39; in data set [1] (0.88 mmol squalenoylpaclitaxel in 0.25 ml THF added to 0.25 ml water), 0.30; in data set [1] (1.76 mmol squalenoylpaclitaxel in 0.25 ml THF added to 0.25 ml water) it was 0.31. Moreover, the Diameter in data set [1] (0.36 squalenoylpaclitaxel in 0.25 ml THF added to 0.25 ml water) worked out at 151 ± 84 nm; in data set [1] (0.88 squalenoylpaclitaxel in 0.25 ml THF added to 0.25 ml water), 169 ± 92 nm; in data set [1] (1.76 squalenoylpaclitaxel in 0.25 ml THF added to 0.25 ml water) it was 177 ± 99 nm. Further, in the data set on KB 3.1 cells, the “Formation of tubulin lumps (spindle-poisoning activity)” value was “formation of tubulin lumps is clearly visible”. The Signs of toxicity result in the data set on mice (C57BL6) (days 0, 5, 9 and 14, C57BL6 mice) is “do not show any sign of toxicity”. The Mortality result in the data set with mice (C57BL6) (days 0, 5, 9 and 14, period of at least one month) was “No mortality is recorded”.

In data set [1] (setting [6]), squalenoylC22-paclitaxel [Example 13] gave a Mean particle diameter of 239.3 nm and a Polydispersity index of 0.077. Moreover, in data set [2], the IC50 stood at 7300 nM.

In data set [1] (setting [6]), “squalenoylsuccinylpaclitaxel [Example 10]” displayed a Mean particle diameter of 250.9 nm and a Polydispersity index of 0.061. The IC50 in data set [2] was determined as 72 nM.

Regarding `CC(C)=CCC/C(C)=C/CC/C(C)=C/CC/C=C(\C)CC/C=C(\C)CCC(=O)NCCCNCCCCNC(=O)C(O)NC(=O)CCCCCCNC(=N)N` (stereo not drawn) [squalenoyldeoxyspergualine], in data set [1] (setting [7]), the Polydispersity index stood at 0.12, the Size of nanoparticles was found to be 162 nm and the Surface potential is listed as 27.38±2.60 mV.

These data come from US8962552B2, “Nanoparticles of therapeutic agents having low water solubility” (Centre Nationale de Recherche Scientifique, priority 2007, dated 2015).
